Assays:
[1] = biological target: T1, KRAS G12C/SOS/c-Raf complex (Homo sapiens, UniProt P01116, G12C); assay: KRAS G12C/SOS/c-Raf complex formation inhibitory action (TR-FRET); format: biochemical; conditions: one hour at room temperature, read-out: IC50 (KRAS G12C/SOS/c-Raf complex formation inhibition)
T1 construct: Biotinylated AviTag-KRAS G12C (amino acid region 1-185, GDP)
Procedure, shortened: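 Biotin-AviTag KRAS G12C (1-185, GDP-bound) was mixed with compound (4,000 to 4 nM stock dilutions), SOS (564-1049), GST-c-Raf (51-131) and GTP in pH 7.4 HEPES/NaCl/MgCl2/Tween buffer for 1 h at room temperature. Complex formation was read by TR-FRET with Eu-streptavidin and ULight-anti-GST (ex 337 nm, em 620/665 nm).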

NCI-H1373 cells = assay: Anchorage-independent cell proliferation inhibitory action, NCI-H1373 spheroid three-dimensional culture; format: cell-based, Human; conditions: Homo sapiens, NCI-H1373, 144 h, NCI-H1373 spheroid, six days, CellTiter Glo; read-out: IC50 (anchorage-independent cell proliferation inhibition)
Procedure, shortened: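 KRAS G12C NCI-H1373 cells were grown as spheroids in low-attachment U-bottom wells and treated the next day with compound, six points from 1,000 to 0.3 nM final. After six days at 37°C, viability was read by CellTiter-Glo luminescence. IC50 was fitted by Sigmoid-Emax regression, with DMSO set as 0% and cell-free medium as 100% inhibition.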

pERK in NCI-H1373 tumor = assay: Intratumoral pERK inhibitory action in NCI-H1373 tumor of nude mice (TR-FRET); format: in vivo, mouse; conditions: Mus musculus, 6 h, tumor six hours after administration
Protocol: Evaluation of Intratumoral pERK Inhibitory Action
The phosphorylation amount of ERK in tumor sample after administration of test compound was examined by using pERK measurement kit (Advanced ERK phospho-T202/Y204 kit, Cisbio co., Ltd) through a TR-FRET method.
2.0 to 5.0×10^6 NCI-H1373 cells were prepared by using a solution in which an equivalent amount of Matrigel (Becton. Dickinson and Company) was added to PBS, were injected subcutaneously in a volume of 100 μL and planted to male nude mice of 4-5 weeks old (CAnN.Cg-Foxn 1 nu/CrlCrlj (nu/nu), Charles River Laboratories Japan, Inc.), and then the male nude mice were used for the test 15 to 26 days later. The test was conducted with three mice in a solvent group and three mice in a test compound administration group, and the test compounds were prepared by using a solvent such that the dosage thereof is as indicated in Table 4. The test compound was administered subcutaneously or orally. For subcutaneous administration, physiological saline supplemented with equimolar hydrochloric acid was used as a solvent. For oral administration, 6% 2-hydroxypropyl-β-cyclodextrin (Sigma-Aldrich Co. LLC) was used as a solvent. Six hours after the administration, a tumor was excised from a cervical dislocated mouse under isoflurane anesthesia, and a part thereof was put into a 2 mL Eppendorf tube and frozen using liquid nitrogen. The tumor sample was stored in a deep freezer at −80° C. until it was subjected to the pERK measurement test.
500 μL of lysis buffer 1 (Phospholysis buffer [Cisbio Co., Ltd], Complete EDTA free [Roche Diagnostics K.K.], Phosphatase inhibitor cocktail 2 [Sigma-Aldrich Co. LLC]) and one bead (5 mm YTZ ball [Nikkato Corp.]) was added to the tumor sample, and crushed (frequency 25/s for 3 minutes) by using Tissue Lyser II (QIAGEN GmbH). The whole amount was transferred to a new tube and centrifuged (20,400×g for 10 minutes, 4° C.) by using a micro amount high speed cooling centrifuge so as to obtain a tumor lysate which is a supernatant. Protein quantification of tumor lysate was performed by using a protein quantification kit (Pierce 660 nm Protein Assay Kit [Thermo Fisher Scientific Inc.]), and each sample was diluted by using lysis buffer 2 (Phosphorysis buffer [Cisbio Co., Ltd], Blocking Agent [attached to pERK measurement kit]) such that the amount thereof is to be a final concentration of 0.5 μg/μL.
Each of p-ERK1/2 Cryptate antibody and p-ERK1/2 d2 antibody (attached to pERK measurement kit) was diluted 20-fold with each detection buffer (attached to pERK measurement kit), and thereby a mixed solution of these two types of antibodies was prepared. A mixed solution of antibody was added to a 384 well plate at a volume of 4 μL/well. Further, tumor lysate diluted to 0.5 μg/μL was added at a volume of 16 μL/well. After standing at room temperature in a wet box for about 17 hours, the fluorescence intensity at 620 nm and 665 nm was measured under the condition of excitation wavelength of 337 nm by using EnVision 2103 Multilabel Reader (PerkinElmer Co., Ltd.).

[2] = test system: ERK phosphorylation (Thr 202/Tyr 204) in NCI-H1373 cells; assay: ERK phosphorylation inhibitory action in NCI-H1373 (Cell ELISA); format: cell-based, Human; conditions: Homo sapiens, NCI-H1373, 2 h, NCI-H1373 cells, cultured for 2 hours, 100% = 1 μM Trametinib; read-out: IC50 (ERK phosphorylation inhibition)
Procedure, shortened: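 KRAS G12C NCI-H1373 cells (2×10^4/well) were treated with compound (six points, 1,000–0.3 nM final) for 2 h. Phospho-ERK Thr202/Tyr204 was measured by in-cell ELISA with an IRDye 800CW secondary antibody. IC50 was fitted by sigmoid-Emax regression against DMSO (0%) and 1 μM trametinib (100%).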

T1 sequence (P01116 1-185 isoform P01116-2 G12C, one chain of several): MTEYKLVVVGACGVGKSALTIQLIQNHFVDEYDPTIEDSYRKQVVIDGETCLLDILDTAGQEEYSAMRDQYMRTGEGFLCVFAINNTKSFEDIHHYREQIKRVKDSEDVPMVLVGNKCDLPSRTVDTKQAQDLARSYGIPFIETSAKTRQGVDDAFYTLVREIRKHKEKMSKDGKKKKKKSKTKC

Compound	IC50 [1]	IC50 (NCI-H1373 cells)	inhibition at 10 mg/kg (pERK in NCI-H1373 tumor; NCI-H1373, po, Oral administration, 10 mg/kg)	inhibition at 3 mg/kg (pERK in NCI-H1373 tumor; NCI-H1373, sc, Subcutaneous administration, 3 mg/kg, read-out: pERK inhibition (%))	IC50 [2]
C=CC(=O)N1CC2(CCN(c3nc(OC4CCN(CC(C)(C)O)CC4)nc4c(OCC(F)(F)F)c(-c5c(C)ccc6[nH]ncc56)c(C=C)cc34)CC2)C1 [Ex 31]	45 nM	8.3 nM	51%	–	–
C=CC(=O)N1CC2(CCN(c3nc(OC4CCN(C)CC4)nc4c(OCC)c(-c5c(C)ccc6[nH]ncc56)c(C=C)cc34)CC2)C1 [Ex 5]	31 nM	–	–	72%	–
C=CC(=O)N1CC2(CCN(c3nc(OC4CCN(CCOC)CC4)nc4c(OCC(F)(F)F)c(-c5c(C)ccc6[nH]nc(Cl)c56)c(C=C)cc34)CC2)C1 [Example 77]	56 nM	32 nM	–	–	16 nM
C=CC(=O)N1CC2(CCN(c3nc(OC4CCN(C5CCN(C)CC5)CC4)nc4c(OCC(F)(F)F)c(-c5c(C)ccc6[nH]ncc56)c(C=C)cc34)CC2)C1 [Example 72]	41 nM	24 nM	–	–	14 nM
C=CC(=O)N1CC2(CCN(c3nc(OC4CCN(CCOC)CC4)nc4c(OCC(F)(F)F)c(-c5c(C=C)ccc6[nH]ncc56)c(C=C)cc34)CC2)C1 [Example 49]	41 nM	4.6 nM	–	–	2.9 nM
C=CC(=O)N1CC2(CCN(c3nc(OC4CCN(CC(F)(F)F)CC4)nc4c(OCC(F)(F)F)c(-c5c(C)ccc6[nH]ncc56)c(C=C)cc34)CC2)C1 [Example 80]	166 nM	75 nM	–	–	16 nM
C=CC(=O)N1CC2(CCN(c3nc(OC4CCCN(C)CC4)nc4c(OCC(F)(F)F)c(-c5c(C)ccc6[nH]ncc56)c(C=C)cc34)CC2)C1 (centres unmarked) [Example 69]	50 nM	17 nM	–	–	12 nM
